Biological target: human recombinant USP30 (Homo sapiens (Human), UniProt Q70CQ3)
Assay: Ubiquitin-Rhodamine 110 Assay for USP30 Activity
Assay type: biochemical
Conditions: 0.2 nM USP30, 25 nM Ub-Rh110, 30 min preincubation
Description: The assay was performed in a final volume of 9 μL in assay buffer containing 20 mM Tris-HCl (pH 8.0, (IM Tris-HCl, pH 8.0 solution; Corning 46-031-CM)), 1 mM GSH (L-glutathione reduced, Sigma-Aldrich, G4251-100G), 0.03% BGG (0.22 μM filtered, Sigma, G7516-25G), and 0.01% Triton X-100 (Sigma, T9284-10L). Nanoliter quantities of 10-point, 3-fold serial dilution in DMSO were pre-dispensed into 1536 assay plates (Corning, #3724BC) for a final test concentration of 25 μM to 1.3 nM, top to lowest dose, respectively. Concentration and incubation times were optimized for the maximal signal-to-background while maintaining initial velocity conditions at a fixed substrate concentration. The final concentration of USP30 (human recombinant USP30, Boston Biochem, cat. #E-582) in the assay was 0.2 nM. Final substrate (Ub-Rh110; Ubiquitin-Rhodamine 110, UbiQ-126) concentration was 25 nM with [Ub-Rh110]<<Km. 3 μL of 2×USP30 was added to assay plates (pre-stamped with compound), preincubated for 30 minutes and then treated with 3 μL of 2×Ub-Rh110. Plates were incubated for 30 minutes at room temperature before addition of 3 μL of stop solution (final concentration of 10 mM citric acid (Sigma, 251275-500G)). Fluorescence was read on the Envision (excitation at 485 nm and emission at 535 nm; Perkin Elmer) or on the PheraSTAR (excitation at 485 nm and emission at 535 nm; BMG Labtech) fluorescence reader.
For all assay formats, data were reported as percent inhibition compared with control wells based on the following equation: % inh=1−((FLU−AveLow)/(AveHigh−AveLow)) where FLU=measured Fluorescence, AveLow=average Fluorescence of no enzyme control (n=16), and AveHigh=average Fluorescence of DMSO control (n=16). IC50 values were determined by curve fitting of the standard 4 parameter logistic fitting algorithm included in the Activity Base software package: IDBS XE Designer Model205. Data is fitted using the Levenburg Marquardt algorithm.

human recombinant USP30, sequence (Q70CQ3 whole entry): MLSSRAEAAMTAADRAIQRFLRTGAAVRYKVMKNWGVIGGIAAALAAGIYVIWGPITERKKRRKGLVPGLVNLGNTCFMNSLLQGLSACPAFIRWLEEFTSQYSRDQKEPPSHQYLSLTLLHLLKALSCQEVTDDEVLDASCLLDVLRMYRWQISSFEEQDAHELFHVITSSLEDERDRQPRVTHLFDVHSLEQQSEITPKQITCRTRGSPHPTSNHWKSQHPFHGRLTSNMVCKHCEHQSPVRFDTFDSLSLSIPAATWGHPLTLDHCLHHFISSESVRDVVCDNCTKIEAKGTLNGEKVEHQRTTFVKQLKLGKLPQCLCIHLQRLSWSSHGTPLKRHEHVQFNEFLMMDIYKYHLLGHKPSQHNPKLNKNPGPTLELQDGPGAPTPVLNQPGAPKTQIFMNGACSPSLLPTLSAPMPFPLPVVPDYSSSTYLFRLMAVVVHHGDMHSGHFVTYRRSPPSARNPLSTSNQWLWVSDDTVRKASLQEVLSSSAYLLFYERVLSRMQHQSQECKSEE

Compound | IC50 [nM]
N#CN1C[C@@H]2C[C@H]1CCN2C(=O)c1cc(-c2ccccc2Oc2ccccc2)[nH]n1 (single isomer, unassigned) [Compound 1-a] | 100 to 1000
N#CN1C[C@H]2C[C@@H]1CCN2C(=O)c1cc(-c2ccccc2Oc2ccccc2)[nH]n1 (single isomer, unassigned) [Compound 1b] | < 100
N#CN1CC2CCC1C2NC(=O)c1cc(-c2ccccc2Oc2ccccc2)[nH]n1 (single isomer, unassigned) [Compound 2-a] | < 100
N#CN1CC2CCC1C2NC(=O)c1cc(-c2ccccc2Oc2ccccc2)[nH]n1 (single isomer, unassigned) [Compound 2-b] | > 1000
N#CN1C[C@H]2C[C@@]2(NC(=O)c2cc(-c3ccccc3Oc3ccccc3)[nH]n2)C1 (single isomer, unassigned) [Compound 3-a] | 100 to 1000
N#CN1C[C@@H]2C[C@]2(NC(=O)c2cc(-c3ccccc3Oc3ccccc3)[nH]n2)C1 (single isomer, unassigned) [Compound 3-b] | < 100
N#CN1C[C@@H]2C[C@H]1CN2C(=O)c1cc(-c2ccccc2Oc2ccccc2)[nH]n1 (single isomer, unassigned) [Compound 4-a] | 100 to 1000
N#CN1C[C@H]2C[C@@H]1CN2C(=O)c1cc(-c2ccccc2Oc2ccccc2)[nH]n1 (single isomer, unassigned) [Compound 4-b] | 100 to 1000
N#CN1C[C@@H](NC(=O)c2cc(-c3ccccc3Oc3ccccc3)[nH]n2)C2(CC2)C1 (single isomer, unassigned) [Compound 5-a] | < 100
N#CN1C[C@H](NC(=O)c2cc(-c3ccccc3Oc3ccccc3)[nH]n2)C2(CC2)C1 (single isomer, unassigned) [Compound 5-b] | 100 to 1000
N#CN1C[C@H]2C[C@@H]1[C@H]2NC(=O)c1cc(-c2ccccc2Oc2ccccc2)[nH]n1 (single isomer, unassigned) [Compound 8-a] | 100 to 1000
N#CN1C[C@@H]2C[C@H]1[C@@H]2NC(=O)c1cc(-c2ccccc2Oc2ccccc2)[nH]n1 (single isomer, unassigned) [Compound 8-b] | 100 to 1000
N#CN1C[C@@H](NC(=O)c2cc(-c3ccccc3Oc3ccccc3)[nH]n2)CC12COC2 (single isomer, unassigned) [Compound 9-a] | > 1000
N#CN1C[C@H](NC(=O)c2cc(-c3ccccc3Oc3ccccc3)[nH]n2)CC12COC2 (single isomer, unassigned) [Compound 9-b] | > 1000
N#CN1C[C@@H]2CCC[C@]2(NC(=O)c2cc(-c3ccccc3Oc3ccccc3)[nH]n2)C1 (single isomer, unassigned) [Compound 20-a] | < 100
N#CN1C[C@H]2CCC[C@@]2(NC(=O)c2cc(-c3ccccc3Oc3ccccc3)[nH]n2)C1 (single isomer, unassigned) [Compound 20-b] | < 100
N#CN1C[C@@H]2CC[C@]2(NC(=O)c2cc(-c3ccccc3Oc3ccccc3)[nH]n2)C1 (stereo in doubt) [Compound 6-a, N-((1R,5S)-3-cyano-3-azabicyclo[3.2.0]heptan-1-yl)-5-(2-phenoxyphenyl)-1H-pyrazole-3-carboxamide] | < 100
N#CN1C[C@H]2CC[C@@]2(NC(=O)c2cc(-c3ccccc3Oc3ccccc3)[nH]n2)C1 (stereo in doubt) [Compound 6-b, N-((1S,5R)-3-cyano-3-azabicyclo[3.2.0]heptan-1-yl)-5-(2-phenoxyphenyl)-1H-pyrazole-3-carboxamide] | 100 to 1000
